According to patent US20240425867A1, “NUCLEIC ACID-BASED ASSEMBLY AND USES THEREOF” (Rheinische Friedrich-Wilhelms-Universität Bonn, priority 2016, published 2024):
“And” between values parts separate entries of the source, which are not always exact repeats. Identical values can stand only once.

Assays:
H1838 cells [1] = details: DxR 8 μM, 37° C., 2 h, non-irradiated
Procedure: For flow cytometry analysis of HyApNc-mediated DxR uptake, the H1838 cells (1×10^5 cells/well) were seeded for 24 h at 37° C. […] The plates were then incubated for 2 h at 37° C. Afterwards, the cells were detached from the plates by trypsinization and transferred to FACS tubes. The cells were then washed twice by centrifugation with 0.5 mL buffer. Afterwards the cell pellets were resuspended in 100 μL 1×PBS buffer and cither irradiated with UV light for 5 minutes (_=365 nm, 350 mW/cm^2) or not irradiated before subjected to FACS analysis. Fluorescence emissions of the internalized DxR were recorded with a 585/42-nm band-pass filter.

H1838 cells [2] = assay: Confocal microscopy of photo-triggered DxR release in cells; assay type: cell-based, human; details: DxR 40 μM, 37° C., 2 h, without UV irradiation
Procedure: In vitro cell imaging of the cell internalization studies were performed using fluorescence microscopy. Prior to each experiment one 70 to 80% confluent flask was trypsinised and suspended with 10 ml of cell medium. 10 μL of the cell solution was pipetted onto a haemocytometer and the cells were counted. Twenty-four hours prior to the internalization experiments approximately 10,000 NSCLC cells were seeded in 96-well glass bottom multiwell cell culture plates (MatTek® Corporation). The plates were then incubated for 24 hours at 37° C. in 5% CO2-atmosphere. […]
To verify the HyApNc-mediated selective transport of DxR to target cells and its light-triggered release from motif 4, we monitored the fluorescence signal of DxR within and outside of the cell nuclei of H1838 cells that were treated with either free DxR (as control) or with HyApNc-DxR (see Example 1 for details of DxR loading), while keeping the DxR concentrations in the bound and the unbound form fixed at 40 μM (5 μM HyApNc carrying 8 equivalents of DxR). […] When control experiments were performed with a construct lacking DMAB (HyApNcw/oAz-DxR), near-identical DxR fluorescence signals are predominantly observed in the cytosol of the cells with and without UV exposure (FIG. 24A, IV-V).

[3] = test system: NCI-H1838 lung cancer cells; assay: Cell viability (MTT) assay, dose dependent; assay type: cell-based; details: Homo sapiens, free DxR alone (control), MTT after 24 h
Procedure: To assess the cytotoxicity of free DxR and HyApNc-DxR in NCI-H1838 lung cancer cells, the H1838 cells (2×10^4 cells/well) were seeded in a 96 well plate and grown for 24 h. The cells were then washed with 1×PBS (200 μL) and subsequently treated with i) free DxR (as control), ii) HyApNc-DxR or iii) HyApNc.mut-DxR in a dose dependent way with a final DxR concentration ranging from 0.125μM to 50 μM per well. After 2 h of post-treatment, the cells were washed; the RPMI medium was replaced with a fresh RPMI medium, and subsequently either irradiated with UV light for 5 minutes (_=365 nm; 350 mW/cm^2), or not irradiated. Afterwards the cells were incubated for another 24 h at 37° C.
Then for both experiments, 15 μL of a 3-(4,5-dimethylthiazol-2-yl)-2,5-diphenyltetrazolium bromide (MTT) stock solution (5 mg/mL) was added to each well and the cells were incubated at 37° C. for 6 hours. After 6 h post-tretment with MTT solutions, 100 μL of the SDS-HCL solution was added to each well and mixed thoroughly with a pipette and incubated at 37° C. for an additional 12 hours. Finally the absorbance was measured at λ=570 nm by using a Tecan Infinite® M1000 PRO microplate reader.

[4] = Serum stability in PBS-buffered fetal calf serum (PAGE of 32P-labeled aptamer); assay type: in vitro ADME; details: 10% PBS-buffered FCS, 37° C., 0 to 72 h
Procedure: (§1) Serum stabilities of trCLN3, its two point mutant non-binding variant trCLN3.mut and their corresponding lipid-functionalized derivatives trCLN3-L4 and trCLN3.mut-L4 were investigated in fetal calf serum (FCS) and human blood serum. For this purpose, the aptamer motifs were labeled at their 5′-end with ^32P to form radiolabeled oligonucleotides. The degradation tests of all the aptamer motifs were performed for 60-72 h at 37°° C. 6 pmol (12 μl of 0.5 μM) of the radio-labeled aptamer (5′-end-labeled with γ-^32P) was incubated in a volume of 300 μl freshly thawed PBS-buffered FCS or human blood serum (270 μl serum+30 μl 10×PBS). For each measurement, 10 μl of the samples were removed, mixed with 90 μl of gel loading buffer (80% formamide+5 mM EDTA+0.01% SDS) and subsequently stored at −20° C. Aliquots of samples were taken after indicated time intervals of 0, 0.3, 1.5, 3, 6, 24, 48, 60 and 72h respectively. The serum stability of the aptamer in FCS or in HBS at different time intervals were analyzed on a denaturing PAGE by loading 10 μl of each sample onto a 10% TAE-Urea gel and running the gels for 90 minutes at 350 V. Gels were wrapped in clingfilm and exposed to a phosphorimager screen in a closed cassette over a period of 12 h and finally the residual intact aptamer bands were analyzed by scanning the screen in a phosphorimage-scanner (FujiFilm FLA 3000). Intensities of the residual intact aptamer bands were calculated applying AIDA image analyzer software program. Serums half-lives of the selected aptamers were determined by using a half-life curve-fitting data analysis program (GraphPad Prism).

cMet [5] = molecular target: T1, cMet (Homo sapiens, UniProt P08581); assay: Filter retention assay with 32P-labeled aptamer; assay type: binding; details: filter retention assays
T1 construct: cMet-Fc, which represents the ectodomain of cMet fused to the Fc domain of human IgG1 was purchased from R&D Systems; purchased R&D Systems
From the text: The anti-cMet aptamer trCLN3, a 40 nucleotide DNA oligonucleotide rich in guanine sequence, is known to form two intramolecular G-quadruplex structure within the G-rich segment of the aptamer. The G-quadruplex structure in trCLN3 is believed to play a role in target recognition and binding to cMet. […] See J. Vinkenborg et al., Angew Chem Int Ed. 2012, […], 9176-9180; which reference is incorporated herein in its entirety. Binding affinity of trCLN3.mut, a control sequence with a guanine double-point mutation corresponding to G7 and G25 was further verified by filter retention assays.

[6] = Serum stability in PBS-buffered human blood serum (PAGE of 32P-labeled aptamer); assay type: in vitro ADME; details: 10% PBS-buffered HBS, 37° C., 0 to 72 h
Procedure: as §1

cMet [7] = molecular target: T1, cMet; assay: Competitive filter-binding assay against γ-32P-labeled trCLN3; details: competition with γ-32P-trCLN3, cMet ~50 nM, competitor 1 μM-25 pM, 37° C.
Procedure: To test the effect of lipid-modification on trCLN3 binding properties, we determined IC50 values for each trCLN3 derivative by a competitive filter retention assay in which varying concentrations of unlabeled 5′-(1-dodecynyl)-functionalized trCLN3 aptamers competed with constant amounts of γ-^32P-labeled trCLN3 in binding to cMet. Two control experiments were also performed using unlabeled trCLN3 and its two point mutant variant trCLN3.mut as competitors.
First, the trCLN3 motif was 5′-end-labeled with γ-^32P ATP using T4 polynucleotide kinase. An aliquot of 20 μL solution containing 50 pmol trCLN3. 6.7 pmol γ-^32P ATP and 20 U T4 polynucleotide kinase in 1× polynucleotide kinase buffer (New England Biolabs) was incubated at 37° C. for 45 min. followed by removal of unreacted γ-^32P ATP using an Illustra G-25 microspin column (GE Healthcare. München, Germany). The purity of the radiolabeled aptamer was confirmed using a 10% PAGE-gel.
0.25 mg/ml BSA. 2 mM MgCl2 in 1×PBS, pH 7.4. […] Residual radioactivity due to cMet bound labeled aptamers was quantified using Fujifilm Fla-3000 PhosphorImager and AIDA software. The curves were fitted with GraphPadPrism 3.02 plotting non-linear regression curve and the IC50 values have been calculated assuming a competition for single binding site.

cMet [8] = molecular target: T1, cMet; details: binding to HGFR (cMet); read-out: dissociation constant (Kd); cited from earlier work

T1 sequence (P08581 25-932 limits assumed): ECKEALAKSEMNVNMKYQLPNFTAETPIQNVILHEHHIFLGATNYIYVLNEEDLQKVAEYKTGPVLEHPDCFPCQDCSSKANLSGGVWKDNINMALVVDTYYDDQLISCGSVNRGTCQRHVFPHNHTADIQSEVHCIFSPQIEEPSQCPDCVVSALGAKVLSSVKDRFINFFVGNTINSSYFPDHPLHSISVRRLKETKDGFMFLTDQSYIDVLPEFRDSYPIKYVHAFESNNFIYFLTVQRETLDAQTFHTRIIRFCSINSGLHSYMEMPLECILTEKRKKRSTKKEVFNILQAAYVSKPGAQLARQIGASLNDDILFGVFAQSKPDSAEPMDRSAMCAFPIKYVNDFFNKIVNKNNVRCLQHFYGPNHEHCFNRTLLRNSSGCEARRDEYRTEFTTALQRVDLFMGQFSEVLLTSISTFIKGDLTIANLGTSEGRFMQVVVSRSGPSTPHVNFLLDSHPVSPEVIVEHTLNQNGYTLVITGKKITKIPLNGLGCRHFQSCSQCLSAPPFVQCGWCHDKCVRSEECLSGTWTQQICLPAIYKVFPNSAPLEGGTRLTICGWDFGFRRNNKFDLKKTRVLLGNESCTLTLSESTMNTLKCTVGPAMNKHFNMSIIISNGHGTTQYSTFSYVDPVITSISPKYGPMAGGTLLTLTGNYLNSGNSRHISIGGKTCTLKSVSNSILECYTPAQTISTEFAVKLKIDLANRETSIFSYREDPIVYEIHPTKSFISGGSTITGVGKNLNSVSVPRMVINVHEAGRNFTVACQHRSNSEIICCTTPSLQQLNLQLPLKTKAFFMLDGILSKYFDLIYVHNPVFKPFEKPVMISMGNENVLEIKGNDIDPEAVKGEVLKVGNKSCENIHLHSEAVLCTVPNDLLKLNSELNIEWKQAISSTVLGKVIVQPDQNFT

Row | Compound | increase in mean cellular fluorescence intensity vs equivalent dose of HyApNc-DxR or HyApNcw/oAz-DxR (H1838 cells [1]) | DxR fluorescence in cell nuclei (confocal) (H1838 cells [2]) | IC50 [3] | serum half-life (t1/2) [4] | binding to cMet (cMet [5]) | serum half-life (t1/2) [6] | IC50 (cMet [7]) | Kd (cMet [8])
1 | COc1cccc2c1C(=O)c1c(O)c3c(c(O)c1C2=O)C[C@@](O)(C(=O)CO)C[C@@H]3O[C@H]1C[C@H](N)[C@H](O)[C@H](C)O1 [free DxR, (7S,9S)-7-[(2R,4S,5S,6S)-4-amino-5-hydroxy-6-methyloxan-2-yl]oxy-6,9,11-trihydroxy-9-(2-hydroxyacetyl)-4-methoxy-8,10-dihydro-7H-tetracene-5,12-dione] | 5 fold | Strong DxR fluorescence | 8 µM and 4.7 µg/mL |  |  |  |  | 
2 | trCLN3.mut: non-binding control sequence of trCLN3 with guanine double-point mutation at G7 and G25 (DNA TGGATGATAGCTCGGTCGGGGTGGATGGGTTGGCAAGTCT; DNA, backbone and methylation of C not given here) |  |  |  | 2.8 h | almost no binding | 1.9 h |  | 
3 | trCLN3: 40-nucleotide anti-cMet DNA aptamer, 5′-TGGATGGTAGCTCGGTCGGGGTGGGTGGGTTGGCAAGTCT-3′ (DNA, backbone and methylation of C not given here) |  |  |  | 8.7 h |  | 4.9 h | 56 nM | 38 nM
